Measured values as given in PubChem BioAssay (NCI).
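Briefly, cells in 96-well plates were exposed to five compound concentrations for 48 h, and endpoints were estimated by linear interpolation. TGI marks complete inhibition of growth.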

How the values were obtained:
Assay in all cases: NCI-60 cell line screen, 48 h
ACHN renal = system: ACHN renal
CAKI-1 renal = system: CAKI-1 renal
CCRF-CEM leukemia = system: CCRF-CEM leukemia
COLO 205 colon = system: COLO 205 colon
DMS 273 small cell lung = system: DMS 273 small cell lung
EKVX NSCLC = system: EKVX NSCLC
HCC-2998 colon = system: HCC-2998 colon
HCT-116 colon = system: HCT-116 colon
HCT-15 colon = system: HCT-15 colon
HL-60(TB) leukemia = system: HL-60(TB) leukemia
HOP-62 NSCLC = system: HOP-62 NSCLC
HOP-92 NSCLC = system: HOP-92 NSCLC
IGROV1 ovarian = system: IGROV1 ovarian
K-562 leukemia = system: K-562 leukemia
KM12 colon = system: KM12 colon
LOX IMVI melanoma = system: LOX IMVI melanoma
LXFL 529 NSCLC = system: LXFL 529 NSCLC
M14 melanoma = system: M14 melanoma
M19-MEL melanoma = system: M19-MEL melanoma
MALME-3M melanoma = system: MALME-3M melanoma
MOLT-4 leukemia = system: MOLT-4 leukemia
NCI-H522 lung = system: NCI-H522 lung
OVCAR-3 ovarian = system: OVCAR-3 ovarian
OVCAR-4 ovarian = system: OVCAR-4 ovarian
RPMI-8226 leukemia = system: RPMI-8226 leukemia
SF-268 CNS = system: SF-268 CNS
SK-MEL-2 melanoma = system: SK-MEL-2 melanoma
SK-OV-3 ovarian = system: SK-OV-3 ovarian
SN12C renal = system: SN12C renal
SNB-75 CNS = system: SNB-75 CNS
SR leukemia = system: SR leukemia
SW-620 colon = system: SW-620 colon
XF 498 CNS = system: XF 498 CNS

## O=c1n(CCCCn2c(=O)n(CC3CS3)c3ccccc32)c2ccccc2n1CC1CS1 (stereo not drawn)
ACHN renal
  TGI: 77.6 µM
CAKI-1 renal
  TGI: 35.5 µM
CCRF-CEM leukemia
  TGI: 81.4 µM
COLO 205 colon
  TGI: 35.6 µM
DMS 273 small cell lung
  TGI: 42.7 µM
EKVX NSCLC
  TGI: 76.2 µM
HCC-2998 colon
  TGI: 35.9 µM
HCT-116 colon
  TGI: 39.7 µM
HCT-15 colon
  TGI: 33.2 µM
HL-60(TB) leukemia
  TGI: 6.34 µM
HOP-62 NSCLC
  TGI: 43.9 µM
HOP-92 NSCLC
  TGI: 86.5 µM
IGROV1 ovarian
  TGI: 32 µM
K-562 leukemia
  TGI: 37.5 µM
KM12 colon
  TGI: 24.2 µM
LOX IMVI melanoma
  TGI: 14.4 µM
LXFL 529 NSCLC
  TGI: 33.1 µM
M14 melanoma
  TGI: 23.2 µM
M19-MEL melanoma
  TGI: 45.8 µM
MALME-3M melanoma
  TGI: 22.8 µM
MOLT-4 leukemia
  TGI: 5.82 µM
NCI-H522 lung
  TGI: 31.6 µM
OVCAR-3 ovarian
  TGI: 29.4 µM
OVCAR-4 ovarian
  TGI: 34 µM
RPMI-8226 leukemia
  TGI: 30.3 µM
SF-268 CNS
  TGI: > 100 µM
SK-MEL-2 melanoma
  TGI: 29 µM
SK-OV-3 ovarian
  TGI: > 100 µM
SN12C renal
  TGI: 36.5 µM
SNB-75 CNS
  TGI: 61.4 µM
SR leukemia
  TGI: 21.5 µM
SW-620 colon
  TGI: 39.8 µM
XF 498 CNS
  TGI: 20.6 µM
